Data published in patent US20130303479A1, “Antiretroviral Cyclonucleoside Compositions and Methods and Articles of Title of Invention Manufacture Therewith” (priority 2011, published 2013).
Entries after “also recorded” stand apart in the source; their conditions may differ.

Legend:
[1] = system: vsv-g pseudotyped HIV-1 virus; type: cell-based
[2] = in vivo; cited from earlier work
Human recombinant dCK = Human recombinant dCK (Homo sapiens, UniProt P27707); assay: dCK inhibition curve with deoxyinosine as substrate; type: biochemical; conditions: deoxyinosine (dIR) substrate, duplicate
Procedure: Inhibiting the activity of the dCK enzyme is useful. […] Human recombinant dCK activity was characterized using deoxyinosine (dIR) as a substrate. Assays were performed in duplicate in 200 μL of reaction mixture (96-well plate). Reactions were started by adding dIR at various concentrations and the percent inhibition was determined as compared to the positive control via spectrophotometer. […] (See FIG. 35).

cells = conditions: cited from earlier work
HIV [3] = assay: EC50 stated in embodiments, test not specified; type: cell-based
HIV-1 (wt) = assay: Inhibition of HIV replication in primary peripheral blood mononuclear cells (p24 ELISA); type: cell-based; conditions: Human immunodeficiency virus 1, PBMC, read-out: EC50, inhibition of HIV replication
Procedure: Human peripheral blood mononuclear cells (PBMCs) purified from donors were cultured (RPMI+10% FBS) and stimulated pre-infection (24 hrs) and every 3 days for three weeks with 2 ng/ml of phytoheaemagglutinin (PHA) and 1 U/ml IL-2. 24 hours following the initial stimulation the samples were incubated for one hour with the indicated amounts of NSC166641 and then infected with 300 ng HIV-1 (wt). Samples were analyzed via ELISA p24. (See FIG. 7).

HIV [4] = assay: Inhibition of HIV replication in experimental T cell cancer lines; type: cell-based
[5] = target: T1, reverse transcriptase (RT) (Human immunodeficiency virus type 1 group M subtype B, UniProt P03366); assay: Roche reverse transcriptase assay kit; type: biochemical; conditions: indicated amounts
T1 construct: Results of the Roche reverse transcriptase (AT) assay kit; purchased Roche
Procedure: Results of the Roche reverse transcriptase […] assay kit utilizing the indicated amounts of NSC166641. RT activity was measured as a percentage compared to the positive control. […] (See FIG. 9).

[6] = system: vsv-g pseudotyped HIV-1 virus; type: cell-based; remark: listed apart in the source
HIV-1 (wt) virus = type: cell-based
Procedure: G11 HIV reporter cells (200K) were seeded in 5 ml falcon tubes (RPMI+10% FBS) and incubated with the indicated amounts of NSC129220 (CAS 10212-28-9) for one hour before infection with HIV-1 (wt) virus (250 ng). Samples were stained with propidium iodide and analyzed for GFP expression via flow cytometer at 48 and 72 hours post infection. (See FIG. 2).
Example FACS dot plots of live G11 cells expressing HIV induced expression of GFP. […] (See FIG. 27).

Sequence of Human recombinant dCK (P27707 whole entry): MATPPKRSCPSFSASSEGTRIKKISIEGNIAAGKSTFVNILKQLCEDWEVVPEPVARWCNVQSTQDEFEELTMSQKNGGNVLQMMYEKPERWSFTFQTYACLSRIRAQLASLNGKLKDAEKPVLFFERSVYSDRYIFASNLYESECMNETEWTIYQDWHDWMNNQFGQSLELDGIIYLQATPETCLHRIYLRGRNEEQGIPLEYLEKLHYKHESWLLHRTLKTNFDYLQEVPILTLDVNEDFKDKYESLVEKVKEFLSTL

Cc1cn([C@H]2C[C@H](N=[N+]=[N-])[C@@H](CO)O2)c(=O)[nH]c1=O [AZT, zidovudine]
dose dependent effect on Clone 64 cells [1]: dose dependent effect

c1ccc2ccccc2c1 [napthalen]
anti-HIV activity in screen (luciferase expression) [1]: Activity was not detected

N=c1nc2n(cc1F)[C@@H]1O[C@H](CO)[C@@H](O)[C@@H]1O2 [AAFC, 5-fluoro-2,2′cyclocytidine]
fraction of reagent passed through the body unchanged [2]: over 80% | phosphorylation compared to Ara-C [2]: less easily phosphorylated as compared to Ara-C | IC50 (Human recombinant dCK): 32 µM | reversal of cell growth inhibition by nucleosides (cells): reversed by deoxycytidine but not by thymidine and deoxyuridine | thymidine incorporation (cells): inhibited thymidine incorporation into the acid-soluble fraction (DNA) of the cells | EC50 (HIV [3]; Human immunodeficiency virus 1, another aspect of embodiments, read-out: EC50): ~10 nM | EC50 (HIV [3]; Human immunodeficiency virus 1, one aspect of embodiments): ~0.7 nM | dose dependent effect on Clone 64 cells [1]: dose dependent effect | dose-dependent activity (luciferase) [1]: Dose-dependent activity was detected | lowest dose at which anti-HIV activity was seen [1]: 40 µM | EC50 (HIV-1 (wt)): < 0.7 nM | EC50 (HIV [4]; Human immunodeficiency virus 1, read-out: EC50, inhibition of HIV replication, experimental T cell cancer lines): < 500 nM | concentration directly inhibiting HIV replication in vitro (HIV [4]; a number of experimental cell lines and primary cells): < 500 nM | inhibition of HIV replication on post infection treatment (HIV [4]; post exposure of cells infected with HIV-1, experimental cell lines): dramatically inhibit HIV replication | inhibition of RT activity vs positive control [5]: little or no inhibition of RT | rescue of luciferase expression by dC, dT or both [6]: addition of dC but not dT may be able to rescue luciferase expression in treated cells | rescue of luciferase expression by deoxycytidine [6]: Addition of dC appears to be able to rescue luciferase expression in treated cells; also recorded: Addition of dC is able to rescue luciferase expression in treated cells

COc1ccc2[nH]c3c(C)c4ccncc4c(C)c3c2c1 [methoxyellipticine, Methoxyellipticine]
anti-HIV activity in screen (luciferase expression) [1]: Anti-HIV activity was detected

O=C1CN=C(c2ccc[nH]2)c2cc(Cl)ccc2N1 [benzodiazipen, Benzodiazepen]
anti-HIV activity in screen (luciferase expression) [1]: Anti-HIV activity was detected

CCOC(N)=O [ethyl carbamate]
anti-HIV activity in screen (luciferase expression) [1]: Activity was not detected

O=C(O)c1ccccc1 [Benzoic acid]
anti-HIV activity in screen (luciferase expression) [1]: Activity was not detected

Cl.N=c1ccn2c(n1)O[C@H]1[C@H](O)[C@@H](CO)O[C@H]12 [O2,2′-cyclocytidine hydrochloride]
lowest dose at which anti-HIV activity was seen [1]: 40 µM

CC(=O)O.N=c1ccn2c(n1)OC1C(O)C(CO)OC12 (centres unmarked) [NSC129220, O2,2′-cyclocytidine monoacetate]
dose-dependent activity (luciferase) [1]: Dose-dependent activity was detected | lowest dose at which anti-HIV activity was seen [1]: 40 µM | cell viability (HIV-1 (wt) virus; FACS GFP assay, treated reporter cells (FIG. 27)): > 60% | inhibition of HIV induced GFP expression (confirmation of screen) (HIV-1 (wt) virus; live G11 cells, FACS dot plots): inhibition of HIV | rescue of luciferase expression by deoxycytidine [6]: Addition of dC is able to rescue luciferase expression in treated cells
